Results as given in paper PMC3824154 (Angewandte Chemie (International ed. in English), 2013).

Target: T1, MBP-RebF (Lentzea aerocolonigenes, UniProt Q8KI76)
T1 sequence (Q8KI76 1-170): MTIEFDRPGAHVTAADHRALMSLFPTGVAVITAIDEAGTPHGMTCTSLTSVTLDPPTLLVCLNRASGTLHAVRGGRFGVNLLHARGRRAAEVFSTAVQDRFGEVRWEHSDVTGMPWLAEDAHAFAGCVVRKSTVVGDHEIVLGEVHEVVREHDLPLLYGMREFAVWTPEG
Assay: FAD reduction activity
Assay type: biochemical

| Compound | FAD reduction activity (turnover) (NADH as electron donor) | FAD reduction activity (turnover) (FAD as electron acceptor) |
| --- | --- | --- |
| Cc1cc2nc3c(=O)[nH]c(=O)nc-3n(C[C@H](O)[C@H](O)[C@H](O)COP(=O)(O)OP(=O)(O)OC[C@H]3O[C@@H](n4cnc5c(N)ncnc54)[C@H](O)[C@@H]3O)c2cc1C [FAD] | retained high activity for the NAD-dependent reduction of FAD to FADH2 |  |
| NC(=O)C1=CN([C@@H]2O[C@H](COP(=O)(O)OP(=O)(O)OC[C@H]3O[C@@H](n4cnc5c(N)ncnc54)[C@H](O)[C@@H]3O)[C@@H](O)[C@H]2O)C=CC1 [NADH] |  | MBP-RebF, which uses NADH to reduce FAD to FADH2 |
